The record followed here is patent US10993937B2, “Composition, for preventing or treating dry eye syndrome, containing polyethylene glycol and flavonoid nanocomposite as active ingredient” (INJE UNIVERSITY INDUSTRY-ACADEMIC COOPERATION FOUNDATION, priority 2017, dated 2021).

For one test, the system named is MMP-9. In words: Immunohistochemistry of lacrimal gland sections, MMP-9 expression. The note with it: compared with the day 10 of DS. It counts as in vivo, mouse. How it is done: (§1) Eighty three NOD.B10.H2^b mice (6 weeks old) in total were obtained from the Jackson Laboratory (Bar Harbor, Me., USA) and performed an acclimatization process for 6 to 10 weeks. Mice were kept in a semi-pathogen free (SPF) facility, and feed and water were provided as free feed.
(§2) Six mice were used for histopathological analysis as a baseline. Seventy seven mice were injected subcutaneously four times daily for 10 days with 500 μg/200 μL of scopolamine hydrobromide (Sigma-Aldrich) which is a muscarinic receptor blocker. At this time, the mice were exposed to desiccation stress (DS) for 10 days, including air ventilation by the fan, with an average ambient humidity of 40% or less for 18 hours daily. On day 10 after scopolamine hydrobromide injection and dryness stress exposure, tear production was measured and a photograph of the cornea was taken.
(§3) On day 10 of DS, 11 mice were used for histopathological analysis. […] All treatments were performed by injecting five times a day and the amount of tear, corneal disorder and fluorescein scores were measured at baseline, day 10 of DS, and day 3, 5, 7, and 10 after treatment. […] In addition, expression of inflammatory factors associated with immunohistochemical staining in the lacrimal gland was evaluated. […]

For the next test, the system named is IL-6. Nature of the test: Immunohistochemistry of lacrimal gland sections, IL-6 expression. The class given is in vivo, mouse. The note with it: immunostaining; dryness stress 4.02 times of control. How it is done: as §1, §2, §3
A further test concerns IL-17. Nature of the test: Immunohistochemistry of lacrimal gland sections, IL-17 expression. It counts as in vivo, mouse. The following applies: immunostaining; dryness stress 15.35 times of control. How it is done:
as §1, §2, §3

Test [1] concerns NOD.B10.H2^b mouse. Nature of the test: Analysis of corneal irregularities (white ring, corneal disorder score). The class given is in vivo. The following applies: for corneal disorder score: 5-point scale. How it is done: as §1, §2
(§4) On day 10 of DS, 11 mice were used for histopathological analysis. […] All treatments were performed by injecting five times a day and the amount of tear, corneal disorder and fluorescein scores were measured at baseline, day 10 of DS, and day 3, 5, 7, and 10 after treatment. […] In addition, expression of inflammatory factors associated with immunohistochemical staining in the lacrimal gland was evaluated.
Corneal abnormality was measured with reference to a previously reported paper (Invest Ophthalmol Vis Sci. 2006; 47:2847-2856). […] Corneal smoothness was assessed by grading the irregularity of the corneal epithelial cells reflected in the white ring of the digital image. The reflected ring was divided into quarters and the corneal disorder score was calculated using the 5-point scale based on the number of distorted branches in the reflected ring: 0, no distortion; 1, a quarter of distortion; 2, two-quarters of distortion; 3, three-quarters of distortion; 4, four-quarters of distortion; 5, severe distortion.

The test system of another test is VCAM-1. In words: Immunohistochemistry of lacrimal gland sections, VCAM-1 expression. It counts as in vivo, mouse. The following applies: versus day 10 of DS and the vehicle-treated group. How it is done:
as §1, §2, §3

The test system of test [2] is NOD.B10.H2^b mouse. In words: Density of conjunctival goblet cells (PAS staining). It counts as in vivo. The following applies: after treatment; control 12.86±0.76, dryness stress 6.19±0.16. How it is done: as §1, §2, §3
The test system of another test is TNF-α. Nature of the test: Immunohistochemistry of lacrimal gland sections, TNF-α expression. The class given is in vivo, mouse. The following applies: immunostaining; dryness stress 2.04 times of control. How it is done:
as §1, §2, §3

The next test has as its system ICAM-1. Nature of the test: Immunohistochemistry of lacrimal gland sections, ICAM-1 expression. It counts as in vivo, mouse. The note with it: versus day 10 of DS and the vehicle-treated group. How it is done: as §1, §2, §3
Test [3] has as its system NOD.B10.H2^b mouse. In words: Tear production analysis (phenol red-impregnated cotton threads) in mouse model of dry eye syndrome. The note with it: for amount of tears: 1% eye drops 5 μL five times a day, mean±SD. The class given is in vivo. How it is done:
as §1, §2
On day 10 of DS, 11 mice were used for histopathological analysis. Sixty six mice were randomly divided into six groups: vehicle (n=11, saline of 5 μL), catechin group (n=11, 1% catechin of 5 μL), CP1 group (n=11, 1% CP1 5 μL), CP5 group (n=11, 1% CP5 5 μL), CP10 group (n=11, 1% CP10 5 μL) and PEG group (n=11, 1% PEG 5 μL). All treatments were performed by injecting five times a day and the amount of tear, corneal disorder and fluorescein scores were measured at baseline, day 10 of DS, and day 3, 5, 7, and 10 after treatment. Hematoxylin and eosin (H&E) and PAS (periodic acid Schiff) staining were performed on the cornea and conjunctiva, respectively. In addition, expression of inflammatory factors associated with immunohistochemical staining in the lacrimal gland was evaluated.
The amount of tears was measured with reference to a previously reported paper (Eye Contact Lens. 2006; 32(6): 272-276). […] The amount of tears was calculated by comparison with a standard curve expressed using a basic solution (1.5 L of 0.9% saline and 5 mL of 5 N sodium hydroxide (NaOH)).

Test [4] has as its system NOD.B10.H2^b mouse. In words: Corneal fluorescence staining assay (NEI grading). It counts as in vivo. How it is done: as §1
Six mice were used for histopathological analysis as a baseline. Seventy seven mice were injected subcutaneously four times daily for 10 days with 500 μg/200 μL of scopolamine hydrobromide (Sigma-Aldrich) which is a muscarinic receptor blocker. […] On day 10 after scopolamine hydrobromide injection and dryness stress exposure, tear production was measured and a photograph of the cornea was taken.
as §4
Fluorescence staining of the cornea was performed with reference to a previously reported paper (CLAO J. 1995; 21: 221-232). […] Punctate staining was assessed using a standard NEI (national eye institute) grading system with scores of 0 to 3 on each of the five areas of the cornea.

The next test concerns IL-1β. In words: Immunohistochemistry of lacrimal gland sections, IL-1β expression. It counts as in vivo, mouse. The note with it: immunostaining; dryness stress 3.55 times of control. How it is done:
as §1, §2, §3

In the case of catechin, in the test on MMP-9, the “expression of MMP-9, effect in words” value is given as “significantly decreased the MMP-9 expression but did not recover to the control level”. Also, in the test on IL-6, the “expression of IL-6 in the lacrimal gland” value is on record as “no statistically significant difference with day 10 of DS”. For the same substance, the “IL-17 expression in the lacrimal gland” value in the test with IL-17 is on record as “significantly decreased IL-17 expression”. In the test on NOD.B10.H2^b mouse [1] (FIG. 2A, microscopic image), the “day after treatment on which white rings on the corneal surface were observed” value turned out to be 10 days. Further, the corneal disorder score is on record as 2.88±0.48 in the test on NOD.B10.H2^b mouse [1] (day 7 after treatment, vehicle 3.63±0.48) and 2.38±0.47 in the test with NOD.B10.H2^b mouse [1] (day 10 after treatment). Further, the “expression of VCAM-1, effect in words” value in the test on VCAM-1 is “did not show statistically significant difference”. In addition, the “number of conjunctival goblet cells” value in the test on NOD.B10.H2^b mouse [2] was 9.71±1.25 /0.1 mm^2. The “expression of TNF-α in the lacrimal gland” value in the test on TNF-α is on record as “no statistically significant difference with day 10 of DS”. Moreover, the “expression of ICAM-1, effect in words” value with ICAM-1 was “did not show statistically significant difference”. In addition, the values for the amount of tears with NOD.B10.H2^b mouse [3] (after 3 days of treatment) and with NOD.B10.H2^b mouse [3] (after 5 days of treatment) were 0.08 ± 0.03 µL and 0.13 ± 0.01 µL, respectively. Further, the “days of treatment after which tear production recovered to the baseline level” value in the test with NOD.B10.H2^b mouse [3] (baseline 0.16±0.02 μL) is listed as 5 days. For the same substance, the “corneal fluorescence staining score” value in the test with NOD.B10.H2^b mouse [4] (day 7 after treatment, vehicle 10.00±1.00) is 6.67±0.58; with NOD.B10.H2^b mouse [4] (day 10 after treatment), 3.67±0.58. For the same substance, the “expression of IL-1β in the lacrimal gland” value in the test on IL-1β is on record as “no statistically significant difference with day 10 of DS”.
